We go through 18 molecules from patent US9284318B2, “Protein kinase inhibitors” (Pharmascience, Inc., priority 2011, dated 2016).

The subject of one assay is MV4-11 cells. As to the kind of experiment: Human MV4-11 biphenotypic B myelomonocytic leukemia cell survival assay. Type of assay: cell-based. To be noted: cell survival at 72h, Cell Titer-Glo. How it is done: Human MV4-11 Biphenotypic B Myelomonocytic Leukemia Cell Survival Assay
Biphenotypic B myelomonocytic leukemia MV4-11 cells (ATCC CRL-9591) were cultured in suspension at 37° C., 5% CO2 in complete medium (RPMI supplemented with 10% FBS, 1% penicillin/streptomycin). One day prior to treatment, cells per seeded in 96-well plates at 8000 cells/well in complete medium. The following day, triplicate wells were treated with compound curves of 100, 1000 or 10,000 nM starting concentration according to compound potency. Cell survival was measured 72h later by Cell Titer-Glo Luminescent Assay (Promega). Luminescence was read using a Tecan Infinite F200 microplate reader. EC50 values (50% survival in the presence of compound as compared to vehicle treated controls) were calculated from non-linear fit dose response compound curves using CambridgeSoft BioAssay software (Perkin Elmer).

The test system of assay [1] is M-NFS-60 M-CSF-dependent myeloid leukemia cells. As to the kind of experiment: Murine M-CSF-dependent M-NFS-60 cell survival assay. To be noted: Mus musculus; cell survival at 72 hours, 20 ng/ml M-CSF, Cell Titer-Glo. Type of assay: cell-based. The method, then: Cellular Assays: Murine M-CSF-Dependent M-NFS-60 Cell Survival Assay
Murine M-NFS-60 M-CSF-dependent myeloid leukemia cells were purchased from ATCC (CRL-1838). Cells were routinely cultured at 37° C., 5% CO2 in complete medium (RPMI supplemented with 10% FBS, 1% penicillin/streptomycin, 50 uM beta mercaptoethanol) containing 30 ng/ml recombinant murine M-CSF (Peprotech 315-02). For survival assays, cells were transferred to depleted medium (complete medium depleted of M-CSF) for 24 hours prior to initiation of each experiment. M-CSF-starved cells were harvested and re-suspended in complete medium containing 20 ng/ml M-CSF. Cells were seeded at 25,000 cells/well in 96-well plates and incubated for 1 hour at 37° C., 5% CO2. Cells were treated with 1 uM or 10 uM compound curves in triplicate and cell survival was measured 72 hours later by Cell Titer-Glo Luminescent Assay (Promega). Luminescence was read using a Tecan Infinite F200 microplate reader. EC50 values (50% survival in the presence of compound as compared to vehicle treated controls) were calculated from non-linear fit dose response compound curves using GraphPad Prism Software.

Assay [2] concerns the target T1, recombinant human colony stimulating factor 1 receptor (FMS) (Homo sapiens, UniProt P07333).
T1 construct: containing the catalytic domain (amino acids 538-910); His tag; purchased Invitrogen; host or cells: insect cells
T1 sequence (P07333 538-910): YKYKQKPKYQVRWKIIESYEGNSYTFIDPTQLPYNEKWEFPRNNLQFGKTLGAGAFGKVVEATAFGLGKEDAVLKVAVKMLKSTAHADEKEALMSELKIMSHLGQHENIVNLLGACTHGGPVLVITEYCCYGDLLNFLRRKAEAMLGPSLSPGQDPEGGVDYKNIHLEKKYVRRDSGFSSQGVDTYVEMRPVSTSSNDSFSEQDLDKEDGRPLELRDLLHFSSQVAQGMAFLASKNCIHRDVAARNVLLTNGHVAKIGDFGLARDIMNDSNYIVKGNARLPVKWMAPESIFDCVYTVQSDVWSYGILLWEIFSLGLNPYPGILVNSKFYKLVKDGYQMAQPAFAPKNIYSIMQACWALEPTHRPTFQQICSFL
As to the kind of experiment: Biochemical cFMS (CSF1R) fluorescence polarization kinase assay. To be noted: 10 μM ATP, 100 μM substrate, 60 minutes. The method, then:
Biochemical cFMS (CSF1R) Assay:
Fluorescence polarization-based kinase biochemical assays were performed in 384 well-plate format using histidine tagged recombinant human colony stimulating factor 1 receptor (FMS) supplied from Invitrogen™ (containing the catalytic domain (amino acids 538-910), expressed in insect cells and activated in vitro via auto phosphorylation) and a modified protocol of the KinEASE™ FP Fluorescein Green Assay supplied from Millipore™.
Kinase reactions were performed in 384 well plate format at room temperature for 60 minutes in presence of 100 μM substrate, 10 μM ATP and variable test article concentrations. The reaction was stopped with EDTA/KinEASE™ detection reagents and the polarization measured on a Tecan 500 instrument. From the dose-response curve obtained, the IC50 was estimated using Graph pad Prisms® using a non linear fit curve.

As for `Cc1ccc(F)c(NC(=O)Nc2ccc(-n3c4c(c5ncnc(N)c53)CCC4)cc2)c1` [Compound 43], the EC50 (with MV4-11 cells; in assay [1]) was less than 0.1 µM each time. Moreover, the IC50 in assay [2] is less than 0.1 µM.

Regarding `N#Cc1ccccc1NC(=O)Nc1ccc(-n2c3c(c4ncnc(N)c42)CCC3)cc1` [Compound 71], the EC50 in the assay with MV4-11 cells is 0.1 to 1 µM; in assay [1] it was more than 1 µM. The IC50 in assay [2] is more than 1 µM.

Regarding `Nc1ncnc2c3c(n(-c4ccc(NC(=O)Nc5cc(C(F)(F)F)ccc5Cl)cc4)c12)CCC3` [Compound 69], the EC50 in the assay with MV4-11 cells was less than 0.1 µM; in assay [1] it was 0.1 to 1 µM. Further, the IC50 in assay [2] lay in the range of 0.1 to 1 µM.

For the molecule `Nc1ncnc2c3c(n(-c4ccc(NC(=O)Nc5ccc(Cl)c(C(F)(F)F)c5)cc4)c12)CCC3` [Compound 59], the EC50 in the assay with MV4-11 cells was less than 0.1 µM; in assay [1], 0.1 to 1 µM. Also, the IC50 in assay [2] lay in the range of 0.1 to 1 µM.

On to `CCNC(=O)Nc1ccc(-n2c3c(c4ncnc(N)c42)CCC3)cc1` [Compound 9], for which the EC50 is 0.1 to 1 µM in the assay on MV4-11 cells and more than 1 µM in assay [1]. In addition, in assay [2], the IC50 is more than 1 µM.

Regarding `COc1ccc(NC(=O)Nc2ccc(-n3c4c(c5ncnc(N)c53)CCC4)cc2)c(F)c1` [Compound 54], the EC50 (in the assay on MV4-11 cells; in assay [1]) was less than 0.1 µM throughout. Further, the IC50 in assay [2] was less than 0.1 µM.

Turning to `Nc1ncnc2c3c(n(-c4ccc(NC(=O)NC5CCCCC5)cc4)c12)CCC3` [Compound 41], the EC50 in the assay with MV4-11 cells was less than 0.1 µM; in assay [1] it was 0.1 to 1 µM. Moreover, the IC50 in assay [2] was 0.1 to 1 µM.

For `Nc1ncnc2c3c(n(-c4ccc(NC(=O)Nc5ccc(F)cc5F)cc4)c12)CCC3` [Compound 50], the EC50 (in the assay with MV4-11 cells; in assay [1]) was less than 0.1 µM in each case. Moreover, the IC50 in assay [2] fell in the range of 0.1 to 1 µM.

For `Nc1ncnc2c3c(n(-c4ccc(NC(=O)Nc5cccc(C(F)(F)F)c5)cc4)c12)CCC3` [Compound 17], the EC50 (in the assay with MV4-11 cells; in assay [1]) was less than 0.1 µM throughout. The IC50 in assay [2] was in the range of 0.1 to 1 µM.

Regarding `Nc1ncnc2c3c(n(-c4ccc(NC(=O)NCCc5ccccc5)cc4)c12)CCC3` [Compound 46], the values for the concentration for a half-maximal effect (EC50) (with MV4-11 cells; in assay [1]) were less than 0.1 µM and 0.1 to 1 µM, respectively. For the same molecule, in assay [2], the IC50 fell in the range of 0.1 to 1 µM.

As for `Nc1ncnc2c3c(n(-c4ccc(NC(=O)Nc5ccccc5)cc4)c12)CCC3` [Compound 4], the EC50 (in the assay with MV4-11 cells; in assay [1]) was less than 0.1 µM throughout. In addition, in assay [2], the IC50 was less than 0.1 µM.

Consider `Nc1ncnc2c3c(n(-c4ccc(NC(=O)Nc5ccc6c(c5)OCO6)cc4)c12)CCC3` [Compound 28], for which the EC50 (in the assay with MV4-11 cells; in assay [1]) was less than 0.1 µM each time. Further, in assay [2], the IC50 was less than 0.1 µM.

As to `N#Cc1cccc(NC(=O)Nc2ccc(-n3c4c(c5ncnc(N)c53)CCC4)cc2)c1` [Compound 66], the figures for the EC50 (in the assay on MV4-11 cells; in assay [1]) were less than 0.1 µM and 0.1 to 1 µM, respectively. Further, the IC50 in assay [2] is 0.1 to 1 µM.

Take `Nc1ncnc2c3c(n(-c4ccc(NC(=O)Nc5cccc(C(F)(F)F)c5)c(F)c4)c12)CCC3` [Compound 63]: the EC50 (with MV4-11 cells; in assay [1]) was less than 0.1 µM each time. Besides, the concentration for half-maximal inhibition (IC50) in assay [2] was in the range of 0.1 to 1 µM.

Take `COc1cc(NC(=O)Nc2ccc(-n3c4c(c5ncnc(N)c53)CCC4)cc2)ccc1F` [Compound 35]: the EC50 in the assay on MV4-11 cells was less than 0.1 µM; in assay [1] it was 0.1 to 1 µM. For the same molecule, the IC50 in assay [2] is less than 0.1 µM.

Regarding `Nc1ncnc2c3c(n(-c4ccc(NC(=O)NCc5ccccc5)cc4)c12)CCC3` [Compound 30], the EC50 with MV4-11 cells was less than 0.1 µM; in assay [1], 0.1 to 1 µM. Besides, the IC50 in assay [2] was 0.1 to 1 µM.

On to `CS(=O)(=O)c1cccc(NC(=O)Nc2ccc(-n3c4c(c5ncnc(N)c53)CCC4)cc2)c1` [Compound 72], for which the EC50 in the assay on MV4-11 cells is less than 0.1 µM; in assay [1], 0.1 to 1 µM. Moreover, in assay [2], the IC50 lay within 0.1 to 1 µM.

In the case of `CS(=O)(=O)c1ccc(NC(=O)Nc2ccc(-n3c4c(c5ncnc(N)c53)CCC4)cc2)cc1` [Compound 64], the EC50 is 0.1 to 1 µM in the assay on MV4-11 cells and more than 1 µM in assay [1]. Besides, the IC50 in assay [2] was in the range of 0.1 to 1 µM.
